Where two headings read alike, the source gives them in different places.
How the values were obtained:
KRas G12D mutant = KRas G12D mutant (Homo sapiens (Human), UniProt P01116, G12D); assay: Ras GTP Binding Domain Inhibition Assay, KRas G12D mutant; conditions: for inhibition at 20 µM: Table 7; for KRas G12D mutant + SOS: % inh. / KRas G12D mutant: % inh.: 20 uM, Table 8
How it was run: (§1)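 His-tagged GTPase immobilized on nickel-coated plates (10-30 μg/mL, overnight, 4° C), then exposed to compound (20 μM or serial dilution for IC50, 1% DMSO) for 3 h at room temperature, with or without His-tagged Sos (residues 556-1049) in the final hour. Bound Cy3-GTP or Cy5-GTP (100 nM, 45 min) was read by fluorescence after washing.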

KRas wild type = KRas wild type (Homo sapiens (Human), UniProt P01116); assay: Ras GTP Binding Domain Inhibition Assay, KRas wild type
Chain of KRas wild type (P01116 other isoform, or with tags, fused parts or gaps): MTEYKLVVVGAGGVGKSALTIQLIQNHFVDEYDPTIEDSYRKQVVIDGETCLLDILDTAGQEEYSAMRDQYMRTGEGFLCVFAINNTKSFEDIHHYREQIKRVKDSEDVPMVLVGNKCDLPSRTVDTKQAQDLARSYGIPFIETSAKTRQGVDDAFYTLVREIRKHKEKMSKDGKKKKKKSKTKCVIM
How it was run: as §1

MAPK p38 = MAPK p38 Activation Assay in Panc-1 (western blot); assay type: cell-based, Human; set-up: key: Y = yes; N = No; conditions: at 10 μM
How it was run: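 Cells serum-starved overnight in 0.5% FBS, then compound 3 h at 37° C (10 μM or serial dilutions for IC50; 0.3% DMSO). TGF-b1 10 ng/ml stimulation followed: 1 h for Panc-1, 20 min for C2C12. Phospho-p38 (Thr180/Tyr182) measured by western blot of lysates.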

Rho-A = Rho-A (Homo sapiens (Human), UniProt P61586); assay: Ras GTP Binding Domain Inhibition Assay, Rho-A
Chain of Rho-A (P61586 whole entry, species assumed, the tested form may be a part): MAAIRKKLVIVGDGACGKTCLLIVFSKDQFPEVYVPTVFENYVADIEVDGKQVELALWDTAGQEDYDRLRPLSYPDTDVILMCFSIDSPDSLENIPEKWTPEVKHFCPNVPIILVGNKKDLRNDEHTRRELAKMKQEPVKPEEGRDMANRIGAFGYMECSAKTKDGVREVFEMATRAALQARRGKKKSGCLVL
How it was run: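 Steps: coat His-tagged protein (10-30 μg/mL) on nickel wells overnight at 4° C; add test compound, 20 μM final or serial dilution, 1% DMSO, 3 h RT; optional Sos final hour; add 100 nM Cy3-GTP or Cy5-GTP, 45 min; wash and read fluorescence.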

JNK = JNK Activation Assay in Panc-1 (western blot); assay type: cell-based, Human; set-up: key: Y = yes; N = No; conditions: at 10 μM
How it was run: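 Cells were serum-starved overnight in 0.5% FBS, then given compound (10 μM single dose or serial dilutions, 0.3% DMSO) for 3 h at 37 °C. TGF-b1 at 10 ng/ml followed, 1 h for Panc-1 and 20 min for C2C12. Phospho-JNK (Thr183/Tyr185) was read by western blot of lysates.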

[1] = + SOS, read-out: KRas G12D mutant + SOS: % inh.
[2] = without SOS, read-out: KRas G12D mutant: % inh.
[3] = + SOS, read-out: KRas wild type + SOS: % inh.
[4] = without SOS, read-out: KRas wild type: % inh.
[5] = + SOS, read-out: Rho-A + SOS: % inh.
[6] = without SOS, read-out: Rho-A: % inh.

Chain of KRas G12D mutant (P01116 other isoform, or with tags, fused parts or gaps G12D): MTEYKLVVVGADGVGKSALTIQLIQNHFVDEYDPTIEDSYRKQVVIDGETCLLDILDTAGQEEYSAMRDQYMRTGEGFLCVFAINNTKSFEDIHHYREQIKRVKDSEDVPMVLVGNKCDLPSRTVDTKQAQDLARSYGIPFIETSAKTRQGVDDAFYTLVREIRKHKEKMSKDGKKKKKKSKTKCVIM

Row | Compound | inhibition at 20 µM (KRas G12D mutant; [1]) [%] | KRas G12D mutant + SOS: % inh. (KRas G12D mutant; + SOS) | inhibition at 20 µM (KRas G12D mutant; [2]) [%] | KRas G12D mutant: % inh. (KRas G12D mutant; without SOS) | inhibition at 20 µM (KRas wild type; [3]) [%] | inhibition at 20 µM (KRas wild type; [4]) [%] | Activation of MAPK p38 in PANC-1 (MAPK p38) | inhibition at 20 µM (Rho-A; [5]) [%] | inhibition at 20 µM (Rho-A; [6]) [%] | Activation of JNK in PANC-1 (JNK)
1 | COCCNc1nc(-c2nccn2C)nc2sc(-c3cccc(OC)c3Cl)c(-c3ccc(OC)cc3)c12 [Compound 7, 6-(2-Chloro-3-methoxyphenyl)-N-(2-methoxyethyl)-5-(4-methoxyphenyl)-2-(1-methyl-1H-imidazol-2-yl)thieno[2,3-d]pyrimidin-4-amine] | 26 to 45 | B (B = 26-45% inhibition) | 26 to 45 | B (B = 26-45% inhibition) | 76 to 100 | 46 to 75 | Y | 46 to 75 | 26 to 45 | Y
2 | COCCNc1nc(-c2cn(C)cn2)nc2sc(-c3cccc(OC)c3Cl)c(-c3ccc(OC)cc3)c12 [Compound 8, 6-(2-Chloro-3-methoxyphenyl)-N-(2-methoxyethyl)-5-(4-methoxyphenyl)-2-(1-methyl-1H-imidazol-4-yl)thieno[2,3-d]pyrimidin-4-amine] | 26 to 45 | B (B = 26-45% inhibition) | 26 to 45 | B (B = 26-45% inhibition) | 76 to 100 | 46 to 75 | Y | 46 to 75 | 46 to 75 | Y
3 | COCCNc1nc(-c2nccn2C)nc2sc(-c3cccc(OC)c3Cl)c(-c3ccccc3)c12 [Compound 9, 6-(2-Chloro-3-methoxyphenyl)-N-(2-methoxyethyl)-2-(1-methyl-1H-imidazol-2-yl)-5-phenylthieno[2,3-d]pyrimidin-4-amine] | 46 to 75 | C (C = 46-75% inhibition) | 46 to 75 | C (C = 46-75% inhibition) | 76 to 100 | 46 to 75 | Y | 26 to 45 | 26 to 45 | Y
4 | COCCn1ccnc1-c1nc(N[C@H]2C[C@@H](OC)C2)c2c(-c3ccccc3)c(-c3ccn(C)n3)sc2n1 [Compound 13, N-((1s,3s)-3-methoxycyclobutyl)-2-(1-(2-methoxyethyl)-1H-imidazol-2-yl)-6-(1-methyl-1H-pyrazol-3-yl)-5-phenylthieno[2,3-d]pyrimidin-4-amine] | 76 to 100 | D (D = 76-100% inhibition) | 46 to 75 | C (C = 46-75% inhibition) | 76 to 100 | 76 to 100 | N | 76 to 100 | 76 to 100 | Y
5 | CO[C@H]1C[C@H](CNc2nc(-c3nccn3C)nc3sc(-c4ccn(C(C)C)n4)c(C)c23)C1 [Compound 16, 6-(1-Isopropyl-1H-pyrazol-3-yl)-N-(((1r,3r)-3-methoxycyclobutyl)methyl)-5-methyl-2-(1-methyl-1H-imidazol-2-yl)thieno[2,3-d]pyrimidin-4-amine] | 46 to 75 | C (C = 46-75% inhibition) | 26 to 45 | B (B = 26-45% inhibition) | 46 to 75 | 76 to 100 | Y | – | 46 to 75 | Y
6 | COc1cccc(Nc2nc(-c3nccn3C)nc3sc(-c4ccn(C(C)C)n4)c(C)c23)c1 [Compound 17, 6-(1-Isopropyl-1H-pyrazol-3-yl)-N-(3-methoxyphenyl)-5-methyl-2-(1-methyl-1H-imidazol-2-yl)thieno[2,3-d]pyrimidin-4-amine] | 46 to 75 | C (C = 46-75% inhibition) | 46 to 75 | C (C = 46-75% inhibition) | 46 to 75 | 26 to 45 | Y | – | 46 to 75 | Y
7 | COc1cccc(Nc2nc(-c3nccn3C)nc3sc(-c4ccn(C(C)C)n4)c(C)c23)n1 [Compound 18, 6-(1-Isopropyl-1H-pyrazol-3-yl)-N-(6-methoxypyridin-2-yl)-5-methyl-2-(1-methyl-1H-imidazol-2-yl)thieno[2,3-d]pyrimidin-4-amine] | 46 to 75 | C (C = 46-75% inhibition) | 76 to 100 | D (D = 76-100% inhibition) | 46 to 75 | 46 to 75 | Y | – | 76 to 100 | Y
8 | COc1cc(Nc2nc(-c3nccn3C)nc3sc(-c4ccn(C(C)C)n4)c(C)c23)ncn1 [Compound 19, 6-(1-Isopropyl-1H-pyrazol-3-yl)-N-(6-methoxypyrimidin-4-yl)-5-methyl-2-(1-methyl-1H-imidazol-2-yl)thieno[2,3-d]pyrimidin-4-amine] | 46 to 75 | C (C = 46-75% inhibition) | 26 to 45 | B (B = 26-45% inhibition) | 76 to 100 | 76 to 100 | Y | – | 76 to 100 | Y
9 | COCCOCCNc1nc(-c2nccn2C)nc2sc(-c3ccn(C(C)C)n3)c(C)c12 [Compound 21, 6-(1-Isopropyl-1H-pyrazol-3-yl)-N-(2-(2-methoxyethoxy)ethyl)-5-methyl-2-(1-methyl-1H-imidazol-2-yl)thieno[2,3-d]pyrimidin-4-amine] | 76 to 100 | D (D = 76-100% inhibition) | 76 to 100 | D (D = 76-100% inhibition) | 76 to 100 | 76 to 100 | Y | – | 76 to 100 | Y
10 | Cc1c(-c2ccn(C(C)C)n2)sc2nc(-c3nccn3C)nc(NCCN3CCOCC3)c12 [Compound 22, 6-(1-Isopropyl-1H-pyrazol-3-yl)-5-methyl-2-(1-methyl-1H-imidazol-2-yl)-N-(2-morpholinoethyl)thieno[2,3-d]pyrimidin-4-amine] | 76 to 100 | D (D = 76-100% inhibition) | 76 to 100 | D (D = 76-100% inhibition) | 76 to 100 | 76 to 100 | Y | – | 76 to 100 | Y
11 | Cc1c(-c2ccn(C(C)C)n2)sc2nc(-c3nccn3C)nc(NCCN3CCS(=O)(=O)CC3)c12 [Compound 23, 4-(2-((6-(1-Isopropyl-1H-pyrazol-3-yl)-5-methyl-2-(1-methyl-1H-imidazol-2-yl)thieno[2,3-d]pyrimidin-4-yl)amino)ethyl)thiomorpholine 1,1-dioxide] | 76 to 100 | D (D = 76-100% inhibition) | 76 to 100 | D (D = 76-100% inhibition) | 76 to 100 | 76 to 100 | Y | – | 46 to 75 | N
12 | CO[C@H]1CNC[C@@H](Nc2nc(-c3nccn3C)nc3sc(-c4ccn(C(C)C)n4)cc23)C1 [Compound 28, 6-(1-Isopropyl-1H-pyrazol-3-yl)-N-((3S,5R)-5-methoxypiperidin-3-yl)-2-(1-methyl-1H-imidazol-2-yl)thieno[2,3-d]pyrimidin-4-amine] | 76 to 100 | D (D = 76-100% inhibition) | 46 to 75 | C (C = 46-75% inhibition) | 76 to 100 | 76 to 100 | Y | – | 46 to 75 | Y
13 | COCCn1c(-c2nccn2C)nc2sc(-c3ccn(C(C)C)n3)c(C)c2c1=O [Compound 29, 6-(1-Isopropyl-1H-pyrazol-3-yl)-3-(2-methoxyethyl)-5-methyl-2-(1-methyl-1H-imidazol-2-yl)thieno[2,3-d]pyrimidin-4(3H)-one] | 46 to 75 | C (C = 46-75% inhibition) | 46 to 75 | C (C = 46-75% inhibition) | 76 to 100 | 76 to 100 | Y | – | 76 to 100 | Y
